Test results reported in US8912200B2, “Alkynyl substituted pyrimidinyl-pyrroles active as kinases inhibitors” (Nerviano Medical Sciences S.R.L., priority 2011, dated 2014).

Tests used:
Lyn full length = molecular target: T1, Lyn full length (Homo sapiens, UniProt P07948); experiment: Biochemical assay for inhibitors of Lyn (Src family) kinase activity; conditions: Lyn full length 1 nM, 25 μM ATP
T1 construct: The assay has been performed using Lyn full length
Text: Biochemical Assay for Inhibitors of Lck and Lyn (Src Family) Kinases Activity
(§1) Specific Lck and Lyn substrates are trans-phosphorylated by Lck and Lyn kinases in the presence of ATP traced with 33P-γ-ATP. At the end of the phosphorylation reaction, the unreacted ATP, cold and radioactive, is captured by an excess of dowex ion exchange resin that eventually settles by gravity to the bottom of the reaction plate. The supernatant is subsequently withdrawn and transferred into a counting plate that is then evaluated by β-counting.
Lyn Specific Assay Conditions
The assay has been performed using Lyn full length (accession number P07948 of UniProtKB/Swiss-Prot database).
Kinase buffer was composed of 50 mM HEPES pH 7.5 containing 3 mM MgCl2, 1 mM DTT, 3 μM Na3VO4, and 0.2 mg/mL BSA.
The Lyn kinase assay was run with a final enzyme concentration of 1 nM, in the presence of 25 μM ATP, 1.5 nM 33P-γ-ATP and 250 μM of substrate ABI 1 (Aminoacid sequence: EAIYAAPFAKKK—SEQ ID NO: 3). The peptidic substrate was purchased from American Peptide Company (Sunnyvale, Calif.).
(§2) For IC50 determination, test compounds are received as a 1 mM solution in 100% DMSO, distributed into 96 well plates: compounds are then plated into the first column of a microtiter plate (A1 to G1), 100 μL/well.
(§3) An automated station for serial dilutions (Biomek FX, Beckman) is used for producing 1:3 dilutions in 100% DMSO, from line A1 to A10, and for all the compounds in the column. Moreover, 4-5 copies of daughter plates are prepared by reformatting 5 μL of this first set of 100% DMSO dilution plates into 384 deep well-plates: one of these plates with the serial dilutions of test compounds will be thawed the day of the experiments, reconstituted at a 3× concentration with water and used in the IC50 determination assays. In a standard experiment, the highest concentration (3×) of all compounds is 30 μM, while the lowest one is 1.5 nM. Each 384 well-plate will contain at least one curve of the standard inhibitor staurosporine and reference wells (total enzyme activity vs. no enzymatic activity) for the Z′ and signal to background evaluation.
(§4) 384-well plates, V bottom (test plates) are prepared with 5 μL of the compound dilution (3×) and then placed onto a PlateTrak 12 robotized station (Perkin Elmer; the robot has one 384-tip pipetting head for starting the assay plus one 96-tip head for dispensing the resin) together with one reservoir for the Enzyme mix (3×) and one for the ATP mix (3×). At the start of the run, the robot aspirates 5 μL of ATP mix, makes an air gap inside the tips (3 μl) and aspirates 5 μL of JAK2 mix. The following dispensation into the plates plus 3 cycles of mixing, done by the robot itself, starts the kinase reaction. At this point, the correct concentrations are restored for all the reagents. The robot incubates the plates for 60 minutes at room temperature, and then stops the reaction by pipetting 60 μL of dowex resin suspension into the reaction mix. In order to avoid tip clogging, wide bore tips are used to dispense the resin suspension. Three cycles of mixing are done immediately after the addition of the resin. Another mixing cycle is performed after all the plates are stopped, this time using normal tips: the plates are then allowed to rest for about one hour in order to allow resin sedimentation. At this point, 27 μL of the supernatant are transferred into 384-Optiplates (Perkin-Elmer), with 50 μL of Microscint 40 (Perkin-Elmer); after 5 min of orbital shaking the plates are read on a Perkin-Elmer Top Count radioactivity counter.
Data are analyzed by an internally customized version of the SW package “Assay Explorer” that provides sigmoidal fitting of the ten-dilutions curves for IC50 determination in the secondary assays/hit confirmation routines.

[1] = tested on: JAK2 dependent human megakaryoblastic leukemia cell line SET-2; experiment: Cell proliferation assay (CellTiter-Glo, 72 hours); assay type: cell-based; conditions: Homo sapiens, SET-2 cells
Method: The JAK2 dependent human megakaryoblastic leukemia cell line SET-2 (DSMZ, Braunschweig GERMANY) and the JAK2 independent human chronic myelogenous leukaemia cell line K562 (ECACC, Wiltshire, UK) were cultured in RPMI-1640 medium-Glutamax (Gibco BRL, Gaithesburg, Md., USA), supplemented with 10% fetal bovine serum (FBS) at 37° C. and 5% CO2.
Cell Proliferation Assay:
Approximately 5×10^3 cells were plated into 384 microtiter plate wells in 50 μL of growth media with different concentrations of inhibitors. The cells were incubated at 37° C. and 5% CO2 for 72 hours, then the plates were processed using CellTiter-Glo assay (Promega, Madison, Wis., USA) following the manufacturer's instruction. Briefly 25 μL/well reagent solution is added to each well and after 5 minutes shaking the micro-plates are read by Envision luminometer (PerkinElmer, Waltham, Mass., USA).
Data are analyzed by Symix Assay Explorer software (Symix Technologies Inc.) that provides sigmoidal fitting algorithm of the 8 points dilutions curves for IC50 determination.

JAK2 kinase domain = molecular target: T2, JAK2 kinase domain (Homo sapiens, UniProt O60674); experiment: Biochemical assay for inhibitors of JAK kinase activity (JAK2, 33P-γ-ATP/dowex resin); conditions: JAK2 kinase domain 1 nM, 60 μM ATP
T2 construct: commercially available JAK2 kinase domain; purchased Invitrogen, Eugene, Oreg
T2 sequence (O60674 849-1124 limits assumed): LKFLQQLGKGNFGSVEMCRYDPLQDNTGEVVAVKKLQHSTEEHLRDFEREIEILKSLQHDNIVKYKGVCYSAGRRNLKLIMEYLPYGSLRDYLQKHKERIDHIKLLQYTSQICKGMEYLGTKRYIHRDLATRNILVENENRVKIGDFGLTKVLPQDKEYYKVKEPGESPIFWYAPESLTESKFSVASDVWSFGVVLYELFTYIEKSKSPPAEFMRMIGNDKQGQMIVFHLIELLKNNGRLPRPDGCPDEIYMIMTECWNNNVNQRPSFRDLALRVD
Text: Biochemical Assay for Inhibitors of JAK Kinase Activity
as §1, with “Specific JAK2, JAK1 or JAK3 peptide” for “Specific Lck and Lyn”, “by JAK” for “by Lck and Lyn”
500 g of wet resin (SIGMA, custom prepared resin DOWEX 1×8 200-400 mesh, 2.5 Kg) are weighed out and diluted 2 to 1 in 150 mM sodium formate, pH 3.00. The resin is allowed to settle down overnight and then the supernatant is discarded. After three washes as above over a couple of days, the resin is allowed to settle and two volumes (with respect to the resin volume) of 150 mM sodium formate buffer are added.
Kinase buffer was composed of 50 mM HEPES pH 7.5 containing 10 mM MgCl2, 2.5 mM DTT, 10 μM Na3VO4 and 0.2 mg/mL BSA.
JAK2 Specific Assay Conditions
The JAK2 kinase assay was run with a final enzyme concentration of 1 nM, in the presence of 60 μM ATP, 3 nM 33P-γ-ATP and 64 μM of substrate BioDBn*306 (Aminoacid sequence: LPLDKDYYVVREPGQ—SEQ ID NO: 1). The peptidic substrate was purchased from American Peptide Company (Sunnyvale, Calif.).
as §2, §3
as §4, with “counter. […]” for “counter.”

T1 sequence (P07948 whole entry): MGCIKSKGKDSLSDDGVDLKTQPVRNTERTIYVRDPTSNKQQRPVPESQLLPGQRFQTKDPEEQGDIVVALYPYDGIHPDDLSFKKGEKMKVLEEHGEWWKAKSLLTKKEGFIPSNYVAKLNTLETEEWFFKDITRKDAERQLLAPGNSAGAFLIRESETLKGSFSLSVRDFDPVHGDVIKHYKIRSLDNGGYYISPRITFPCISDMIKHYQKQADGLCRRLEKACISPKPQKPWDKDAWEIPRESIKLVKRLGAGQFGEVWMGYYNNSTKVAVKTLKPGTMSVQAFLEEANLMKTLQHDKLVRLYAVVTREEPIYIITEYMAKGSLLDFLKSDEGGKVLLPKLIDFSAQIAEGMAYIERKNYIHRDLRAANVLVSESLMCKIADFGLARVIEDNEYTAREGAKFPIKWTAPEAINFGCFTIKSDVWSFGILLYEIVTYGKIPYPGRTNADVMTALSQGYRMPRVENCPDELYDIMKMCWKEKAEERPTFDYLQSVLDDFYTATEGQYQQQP

| IC50 (Lyn full length) [nM] | IC50 [1] [nM] | IC50 (JAK2 kinase domain) [nM] | Structure (SMILES) |
| --- | --- | --- | --- |
| 6 | 160 | 4 | Cc1ccc(Cl)cc1-c1[nH]c(-c2nc(N)ncc2C#Cc2cccc(OC3CCN(C)CC3)c2)cc1C(N)=O [compound 32, 5-[2-Amino-5-({3-[(1-methylpiperidin-4-yl)oxy]phenyl}ethynyl)pyrimidin-4-yl]-2-(5-chloro-2-methylphenyl)-1H-pyrrole-3-carboxamide] |
| 20 | 670 | 5 | COc1ccc(N2CCN(C)CC2)cc1C#Cc1cnc(N)nc1-c1cc(C(N)=O)c(-c2cc(Cl)ccc2C)[nH]1 [compound 34, 5-(2-Amino-5-{[2-methoxy-5-(4-methylpiperazin-1-yl)phenyl]ethynyl}pyrimidin-4-yl)-2-(5-chloro-2-methylphenyl)-1H-pyrrole-3-carboxamide] |
| 9 | 240 | 11 | Cc1ccc(Cl)cc1-c1[nH]c(-c2nc(N)ncc2C#Cc2ccc(N3CCN(C)CC3)cc2F)cc1C(N)=O [compound 42, 5-(2-Amino-5-{[2-fluoro-4-(4-methylpiperazin-1-yl)phenyl]ethynyl}pyrimidin-4-yl)-2-(5-chloro-2-methylphenyl)-1H-pyrrole-3-carboxamide] |
| 18 | 290 | 6 | COc1cc(N2CCN(C)CC2)ccc1C#Cc1cnc(N)nc1-c1cc(C(N)=O)c(-c2cc(Cl)ccc2C)[nH]1 [compound 46, 5-(2-Amino-5-{[2-methoxy-4-(4-methylpiperazin-1-yl)phenyl]ethynyl}pyrimidin-4-yl)-2-(5-chloro-2-methylphenyl)-1H-pyrrole-3-carboxamide] |
| 6 | 220 | 3 | Cc1ccc(Cl)cc1-c1[nH]c(-c2nc(N)ncc2C#Cc2cccc(N3CCN(C)CC3)c2)cc1C(N)=O [compound 47, 5-(2-Amino-5-{[3-(4-methylpiperazin-1-yl)phenyl]ethynyl}pyrimidin-4-yl)-2-(5-chloro-2-methylphenyl)-1H-pyrrole-3-carboxamide] |
| 8 | 160 | 6 | Cc1ccc(Cl)cc1-c1[nH]c(-c2nc(N)ncc2C#Cc2ccc(OC3CCN(C)CC3)cc2)cc1C(N)=O [compound 48, 5-[2-Amino-5-({4-[(1-methylpiperidin-4-yl)oxy]phenyl}ethynyl)pyrimidin-4-yl]-2-(5-chloro-2-methylphenyl)-1H-pyrrole-3-carboxamide] |
| 20 | 140 | 5 | Cc1ccc(Cl)cc1-c1[nH]c(-c2nc(N)ncc2C#Cc2cc(N3CCN(C)CC3)ccc2F)cc1C(N)=O [compound 49, 5-(2-Amino-5-{[2-fluoro-5-(4-methylpiperazin-1-yl)phenyl]ethynyl}pyrimidin-4-yl)-2-(5-chloro-2-methylphenyl)-1H-pyrrole-3-carboxamide] |
| 26 | 1380 | 7 | Cc1ccc(Cl)cc1-c1[nH]c(-c2nc(N)ncc2C#CCN2CCN(C)CC2)cc1C(N)=O [compound 50, 5-{2-Amino-5-[3-(4-methylpiperazin-1-yl)prop-1-yn-1-yl]pyrimidin-4-yl}-2-(5-chloro-2-methylphenyl)-1H-pyrrole-3-carboxamide] |
| 5 | 100 | 3 | Cc1ccc(Cl)cc1-c1[nH]c(-c2nc(N)ncc2C#Cc2cccc(NCCN)c2)cc1C(N)=O [compound 63, 5-[2-Amino-5-({3-[(2-aminoethyl)amino]phenyl}ethynyl)pyrimidin-4-yl]-2-(5-chloro-2-methylphenyl)-1H-pyrrole-3-carboxamide] |
| 1 | 190 | 1 | Cc1ccc(Cl)cc1-c1[nH]c(-c2nc(N)ncc2C#Cc2ccc(CN3CCCC3)cc2)cc1C(N)=O [compound 66, 5-(2-Amino-5-{[4-(pyrrolidin-1-ylmethyl)phenyl]ethynyl}pyrimidin-4-yl)-2-(5-chloro-2-methylphenyl)-1H-pyrrole-3-carboxamide] |
